{
  "source": "patent EP0629400B1",
  "about": "(TAKEDA CHEMICAL INDUSTRIES, LTD., priority 1993, dated 1994)",
  "key": {"[1]": {"tested_on": "Patients with Alzheimer type dementia", "experiment": "Double-blind controlled study, efficacy by Alzheimer's Disease Assessment Scale (ADAS)", "type": "in vivo", "details": "for Score Difference after 6 Months of Administration (mean ± SD): ADAS, n=100, severity increases as the value increases", "protocol": "A double-blind controlled study was conducted in patients with Alzheimer type dementia.\nThere was no bias in background factors or pre-administration values for efficacy evaluation index among the three groups. Efficacy was evaluated by the Alzheimer's Disease Assessment Scale (ADAS) [American Journal of Psychiatry, Vol. 141, pp. 1356-1364, (1984)], an index for rating the therapeutic effect on Alzheimer's disease recommended by the FDA and all over the world. The results were statistically analyzed to rate the efficacy.\nThe drugs administered to the patients in the experiment were the tablet preparations of Example 1 and Comparative Examples 1 and 2 above."}, "mouse astroglias": {"tested_on": "mouse astroglias", "details": "cited from earlier work"}, "[2]": {"tested_on": "patients with Alzheimer's disease", "details": "45 mg twice a day (daily dose 90 mg); cited from earlier work"}},
  "data": [
    {"smiles": "COC1=C(OC)C(=O)C(CCCCCCCCCCO)=C(C)C1=O", "note": "[idebenone, 6-(10-hydroxydecyl)-2,3-dimethoxy-5-methyl-1,4-benzoquinone]", "values": [
      {"measurement": "symptoms of Alzheimer's disease", "setting": "[1]; 90 mg 3 times a day, compared with 30 mg 3 times a day and placebo", "value": "improvement of statistical significance"},
      {"measurement": "Score Difference after 6 Months of Administration (mean ± SD)", "setting": "[1]; 30 mg TID oral after meals (tablets of Comparative Example 1)", "value": "-5.5 ± 7.2"},
      {"measurement": "Score Difference after 6 Months of Administration (mean ± SD)", "setting": "[1]; 90 mg TID oral after meals (tablets of Example 1)", "value": "-8.0 ± 8.5"},
      {"measurement": "nerve growth factor (NGF) secretion", "setting": "mouse astroglias", "value": "induction and promotion of nerve growth factor (NGF) secretion"},
      {"measurement": "efficacy in patients with Alzheimer's disease", "setting": "[2]", "value": "proved effective"}
    ]}
  ]
}
